These results are taken from ChEMBL document CHEMBL4049439, “Synthesis and Characterization of Tetrahydropyran-Based Bacterial Topoisomerase Inhibitors with Antibacterial Activity against Gram-Negative Bacteria” (J Med Chem, 2017).

Series [1] has as its system Acinetobacter baumannii. Description: (§1) Inhibition of wild-type Acinetobacter baumannii DNA topoisomerase-4 mediated supercoiled pBR322 DNA relaxation by ethidium bromide based agarose gel electrophoresis.
The test system of series [2] is Acinetobacter baumannii. Nature of the series: (§2) Inhibition of wild-type Acinetobacter baumannii DNA gyrase supercoiling activity using relaxed pBR322 DNA as substrate by ethidium bromide based agarose gel electrophoresis.
For series [3], the system named is Pseudomonas aeruginosa. Nature of the series: (§3) Inhibition of wild-type Pseudomonas aeruginosa DNA gyrase supercoiling activity using relaxed pBR322 DNA as substrate by ethidium bromide based agarose gel electrophoresis.
In series [4] the test system is Pseudomonas aeruginosa. Nature of the series: (§4) Inhibition of wild-type Pseudomonas aeruginosa DNA topoisomerase-4 mediated supercoiled pBR322 DNA relaxation by ethidium bromide based agarose gel electrophoresis.
Series [5] in a line: Lipophilicity, log D of the compound at pH 7.4. The series is classed as physicochemical. Conditions: buffer.
Series [6] in a line: as §1.
Series [7] can be described thus: Inhibition of wild-type Escherichia coli DNA topoisomerase-4 mediated supercoiled pBR322 DNA relaxation by ethidium bromide based agarose gel electrophoresis.
The test system of series [8] is Staphylococcus aureus. Description: Antibacterial activity against Staphylococcus aureus ATCC 29213 by CLSI broth microdilution method. The series is classed as functional. For orientation: In broth dilution the organism is exposed to a series of concentrations in liquid medium.
The subject of series [9] is Escherichia coli. Nature of the series: Antibacterial activity against wild-type Escherichia coli ATCC 25922 by CLSI broth microdilution method. Type of series: functional.
Series [10] has as its system Acinetobacter baumannii. Description: Antibacterial activity against fluoroquinolone-resistant Acinetobacter baumannii T6474 by CLSI broth microdilution method. Type of series: functional.
The test system of series [11] is Pseudomonas aeruginosa. Nature of the series: Antibacterial activity against Pseudomonas aeruginosa ATCC 27853 by CLSI broth microdilution method. Type of series: functional.
Series [12] can be described thus: Inhibition of wild-type Escherichia coli DNA gyrase supercoiling activity using relaxed pBR322 DNA as substrate by ethidium bromide based agarose gel electrophoresis.
The nature of series [13]: as §2.
A short description of series [14]: as §3.
Series [15] can be described thus: as §4.

Values after ≈ are worked out from the molar mass of the structure shown. Active and inactive are the calls of the source.

For `COc1ccc2nccc([C@@H](N)C[C@@H]3CC[C@@H](NCc4ccc5c(n4)NC(=O)CO5)CO3)c2n1`, the inhibition result in series [1], in series [2], in [3] and in [4] was “inactive” each time.

In general, logD refers to lipophilicity at a set pH, counting ionised and neutral species. The low end stands for lower lipophilicity, the high end for higher lipophilicity. As to `COc1ccc2ncc(F)c(C[C@H](O)C34CCC(NCc5ccc6c(n5)NC(=O)CO6)(CC3)CO4)c2n1`, in [5], the pH-dependent lipophilicity (logD) was found to be 2.

The IC50 is the point on the concentration scale where inhibition reaches its midpoint. A word on the MIC: it is the smallest concentration in the dilution series that meets the test's criterion for growth inhibition. Low values mean a more susceptible organism, high ones a less susceptible organism. For the molecule `COc1ccc2nccc(C(N)C[C@@H]3CC[C@@H](NCc4ccc5c(n4)NC(=O)CO5)CO3)c2n1` (mixture of isomers), the half-maximal inhibitory concentration (IC50) turned out to be 125 nM in series [6]; 125 nM in [7]; 8000 nM in [12]; 2000 nM in series [13]; 500 nM in series [14]; 125 nM in [15]. Also, the minimum inhibitory concentration (MIC) stood at 2 µg/mL in [8], 1 µg/mL in series [9], 8 µg/mL in [10] and 8 µg/mL in series [11].

As to `COc1ccc2ccc(=O)n(C[C@H](O)[C@@H]3CC[C@@H](NCc4cc5c(cn4)OCCS5)CO3)c2n1`, the IC50 in [6] is 30 nM; in series [7] it was 30 nM; in [12], 500 nM; in series [13], 125 nM; in series [14] it was 500 nM; in [15], at most 10 nM. For the same molecule, the MIC in [8] is at most 0.03 µg/mL; in series [9], 4 µg/mL (≈ 8.25 µM); in series [10], 0.5 µg/mL (≈ 1.03 µM); in [11] it was over 8 µg/mL.

For `COc1ccc2ccc(F)c(C[C@H](N)[C@@H]3CC[C@@H](NCc4ccc5c(n4)NC(=O)CO5)CO3)c2n1`, the concentration for half-maximal inhibition (IC50) in [6] is 30 nM; in series [7] it was at most 10 nM; in [12], 30 nM; in series [13], 30 nM; in [14], 30 nM; in series [15] it was 30 nM. Also, the MIC in series [8] was 0.03 µg/mL (≈ 0.0623 µM); in series [9], at most 0.03 µg/mL; in series [10], at most 0.03 µg/mL; in series [11], 1 µg/mL (≈ 2.08 µM).

Take `COc1ccc2ccc(=O)n(C[C@H](O)[C@@H]3CC[C@@H](NCc4cc5c(cn4)OCCO5)CO3)c2n1`: the half-inhibitory concentration (IC50) came to 125 nM in series [6]; 125 nM in series [7]; 8000 nM in series [12]; 125 nM in series [13]; 125 nM in series [14]; 125 nM in series [15]. The minimum inhibitory concentration (MIC) in series [8] is at most 0.03 µg/mL; in series [9] it was 4 µg/mL (≈ 8.54 µM); in series [10], 0.5 µg/mL (≈ 1.07 µM); in series [11] it was over 8 µg/mL.

On to `COc1cnc2ccc(=O)n(C[C@H](N)[C@@H]3CC[C@@H](NCc4ccc5c(n4)NC(=O)CO5)CO3)c2n1`, for which the concentration for half-maximal inhibition (IC50) amounted to 30 nM in series [6]; 30 nM in [7]; 500 nM in [12]; 125 nM in series [13]; 125 nM in series [14]; 30 nM in [15]. The MIC in [8] came to 0.5 µg/mL (≈ 1.04 µM); in series [9] it was 0.5 µg/mL (≈ 1.04 µM); in series [10], 2 µg/mL (≈ 4.15 µM); in series [11] it was 1 µg/mL (≈ 2.08 µM).

Turning to `COc1ccc2nccc([C@H](N)C[C@@H]3CC[C@@H](NCc4ccc5c(n4)NC(=O)CO5)CO3)c2n1`, the inhibition result in series [1], in series [2], in series [3] and in series [4] was “inactive” each time.

In the case of `COc1ccc2ccc(=O)n(C[C@H](O)[C@@H]3CC[C@@H](NCc4cc5c(nn4)OCCS5)CO3)c2n1`, the IC50 came to 500 nM in series [6]; 125 nM in series [7]; 8000 nM in series [12]; 2000 nM in series [13]; 500 nM in [14]; 125 nM in series [15]. Moreover, the minimum inhibitory concentration (MIC) in series [8] is 0.031 µg/mL (≈ 0.0638 µM); in series [9] it was over 8 µg/mL; in series [10], 8 µg/mL (≈ 16.5 µM); in [11] it was over 8 µg/mL.

On to `COc1ccc2ncc(=O)n(C[C@H](N)[C@@H]3CC[C@@H](NCc4ccc5c(n4)NC(=O)CO5)CO3)c2c1`, for which the IC50 stood at 125 nM in series [6]; 30 nM in [7]; 500 nM in series [12]; 30 nM in series [13]; 30 nM in [14]; 30 nM in series [15]. The minimum inhibitory concentration (MIC) was found to be 0.063 µg/mL (≈ 0.131 µM) in series [8], 0.25 µg/mL (≈ 0.52 µM) in series [9], 2 µg/mL (≈ 4.16 µM) in [10] and 4 µg/mL (≈ 8.32 µM) in series [11].

On to `COc1ccc2nccc(CC(N)[C@@H]3CC[C@@H](NCc4ccc5c(n4)NC(=O)CO5)CO3)c2n1` (mixture of isomers), for which the 50% inhibitory concentration (IC50) in series [6], in series [7], in [12], in series [13], in series [14] and in series [15] was 500 nM in each case. Further, the MIC worked out at 0.125 µg/mL in [8], 0.125 µg/mL in series [9], 0.5 µg/mL in [10] and 2 µg/mL in series [11].

With `COc1ccc2ncc(F)c(C[C@H](O)[C@@H]3CC[C@@H](NCc4cc5c(nn4)OCCS5)CO3)c2n1`, the concentration for half-maximal inhibition (IC50) in series [6] was 125 nM; in series [13], 2000 nM; in series [14], 500 nM; in [15], 125 nM. Also, it took 2 µg/mL (≈ 4.1 µM) to inhibit growth in [10] (MIC).

Take `COc1ccc2ncc(=O)n(C[C@H](N)[C@@H]3CC[C@@H](NCc4ccc5c(n4)NC(=O)CO5)CO3)c2n1`: the concentration for half-maximal inhibition (IC50) in [6] amounted to 125 nM; in series [7], 125 nM; in series [12], 500 nM; in series [13], 125 nM; in [14] it was 125 nM; in series [15], 30 nM. The minimal inhibitory concentration (MIC) in series [8] was 0.125 µg/mL (≈ 0.26 µM); in series [9], 0.5 µg/mL (≈ 1.04 µM); in series [10], 2 µg/mL (≈ 4.15 µM); in [11], 2 µg/mL (≈ 4.15 µM).

For `COc1ccc2ccc(=O)n(C[C@H](O)[C@@H]3CC[C@@H](NCc4cc5c(nn4)OCCO5)CO3)c2n1`, the IC50 in [6] was determined as 8000 nM; in [7] it was 2000 nM; in series [12], 32000 nM; in series [13], 8000 nM; in series [14], 8000 nM; in series [15], 500 nM. Also, the minimal inhibitory concentration (MIC) was 0.06 µg/mL (≈ 0.128 µM) in [8], over 8 µg/mL in series [9], over 8 µg/mL in [10] and over 8 µg/mL in [11].

In the case of `O=C(O)c1cn(C2CC2)c2cc(N3CCNCC3)c(F)cc2c1=O` [CIPROFLOXACIN], the IC50 in series [6] came to 32000 nM; in series [13], 2000 nM; in series [14], 500 nM; in series [15] it was 8000 nM.

Consider `COc1ccc2ccc(=O)n(C[C@H](N)[C@@H]3CC[C@@H](NCc4ccc5c(n4)NC(=O)CO5)CO3)c2c1`, for which the half-maximal inhibitory concentration (IC50) in [6] stood at 125 nM; in series [7], 30 nM; in [12], 125 nM; in series [13], 125 nM; in [14], 125 nM; in series [15], 500 nM. In addition, the MIC in [8] was determined as 0.25 µg/mL (≈ 0.521 µM); in series [9], 0.25 µg/mL (≈ 0.521 µM); in series [10] it was 2 µg/mL (≈ 4.17 µM); in series [11] it was 4 µg/mL (≈ 8.34 µM).

`COc1cnc2ccc(=O)n(C[C@H](N)[C@@H]3CC[C@@H](NCc4ccc5c(n4)NC(=O)CO5)CO3)c2c1`: the IC50 in [6] was 125 nM; in [7], 30 nM; in [12], 500 nM; in [13] it was 30 nM; in [14], 30 nM; in [15], 30 nM. Further, the minimal inhibitory concentration (MIC) in series [8] is 1 µg/mL (≈ 2.08 µM); in [9], 1 µg/mL (≈ 2.08 µM); in series [10], 4 µg/mL (≈ 8.32 µM); in series [11] it was 4 µg/mL (≈ 8.32 µM).

Regarding `COc1ccc2nccc(C[C@H](N)[C@@H]3CC[C@@H](NCc4ccc5c(n4)NC(=O)CO5)CO3)c2n1`, the IC50 in series [6] came to 30 nM; in series [7], 30 nM; in [12], 125 nM; in series [13], 125 nM; in series [14] it was 125 nM; in [15], 30 nM. The minimal inhibitory concentration (MIC) in series [8] came to 0.06 µg/mL (≈ 0.129 µM); in series [9], 0.125 µg/mL (≈ 0.269 µM); in series [10], 0.25 µg/mL (≈ 0.538 µM); in series [11], 0.5 µg/mL (≈ 1.08 µM).

On to `COc1ccc2ncc(F)c(C[C@@H](N)[C@@H]3CC[C@@H](NCc4ccc5c(n4)NC(=O)CO5)CO3)c2n1`, for which the half-inhibitory concentration (IC50) in series [6] was found to be 125 nM; in series [7], 125 nM; in series [12], 500 nM; in series [13], 500 nM; in series [14] it was 125 nM; in series [15] it was 125 nM. Further, the MIC was 1 µg/mL (≈ 2.07 µM) in [8], 1 µg/mL (≈ 2.07 µM) in series [9], 1 µg/mL (≈ 2.07 µM) in [10] and over 8 µg/mL in series [11].
